Experimental data reported in patent US20220289698A1, “INHIBITORS OF HUMAN ATGL” (Karl-Franzens-Universität Graz, priority 2019, published 2022).
Read-outs that look alike come from different tables or passages of the source.

Experiments:
Assay type in all cases: biochemical
murine ATGL = target: T1, murine ATGL (Mus musculus, UniProt Q8BJ56); test: TG hydrolase activity, Expi lysates expressing mouse ATGL + CGI-58, radiolabelled triolein
T1 construct: made in house; host or cells: Expi cells (lysate)
T1 sequence (Q8BJ56 1-486): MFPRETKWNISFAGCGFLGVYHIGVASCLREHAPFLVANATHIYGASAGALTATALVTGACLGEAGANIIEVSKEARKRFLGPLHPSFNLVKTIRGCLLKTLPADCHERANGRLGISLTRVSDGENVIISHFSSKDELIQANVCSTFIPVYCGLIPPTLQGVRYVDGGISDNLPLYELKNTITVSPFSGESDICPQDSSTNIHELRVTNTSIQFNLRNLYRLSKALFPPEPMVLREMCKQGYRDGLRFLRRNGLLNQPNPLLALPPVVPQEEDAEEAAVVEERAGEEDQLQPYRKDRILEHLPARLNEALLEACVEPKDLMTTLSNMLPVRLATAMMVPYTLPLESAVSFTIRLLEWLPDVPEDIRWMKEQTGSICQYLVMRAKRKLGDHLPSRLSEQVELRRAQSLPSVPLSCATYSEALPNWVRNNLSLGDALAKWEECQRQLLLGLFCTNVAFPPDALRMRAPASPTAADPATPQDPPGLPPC
Method in brief: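 Lysates of Expi cells overexpressing mouse ATGL, with added recombinant CGI-58, were incubated with inhibitor at 50 μM. Substrate was emulsified radiolabelled triolein with PC/PI in 100 mM potassium phosphate pH 7.0 and 5% FA-free BSA, 1 h at 37° C. Released FA were extracted and counted by scintillation; triplicates, DMSO control.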

mMGL = target: T2, mMGL (Mus musculus, UniProt O35678); test: mMGL off-target inhibition; settings: read-out: mMGL off-target inhibition [% inhibition at 100 μM]
T2 construct: made in house; host or cells: E. coli (lysate)
T2 sequence (O35678 1-303): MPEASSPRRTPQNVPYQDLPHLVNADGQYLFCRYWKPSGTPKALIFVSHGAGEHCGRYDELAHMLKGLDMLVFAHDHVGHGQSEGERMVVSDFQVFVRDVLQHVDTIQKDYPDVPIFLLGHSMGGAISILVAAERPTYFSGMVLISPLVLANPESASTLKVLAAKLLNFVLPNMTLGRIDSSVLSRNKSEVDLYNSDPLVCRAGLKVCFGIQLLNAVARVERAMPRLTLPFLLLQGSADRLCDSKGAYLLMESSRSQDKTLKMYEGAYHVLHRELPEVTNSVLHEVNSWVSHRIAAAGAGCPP
Procedure: Lysates from E. coli expressing mMGL were treated with 100 μM Inhibitors and incubated with 1 mM rac-OG substrate for 10 min. Enzyme activity was measured using the Free Glycerol Reagent. Samples measured in triplicates.

hHSL = target: T3, hHSL (Homo sapiens, UniProt Q05469); test: hHSL off-target inhibition; settings: read-out: hHSL off-target inhibition [% inhibition at 100 μM]
T3 construct: made in house; host or cells: Expi cells (lysate)
T3 sequence (Q05469 1-1076): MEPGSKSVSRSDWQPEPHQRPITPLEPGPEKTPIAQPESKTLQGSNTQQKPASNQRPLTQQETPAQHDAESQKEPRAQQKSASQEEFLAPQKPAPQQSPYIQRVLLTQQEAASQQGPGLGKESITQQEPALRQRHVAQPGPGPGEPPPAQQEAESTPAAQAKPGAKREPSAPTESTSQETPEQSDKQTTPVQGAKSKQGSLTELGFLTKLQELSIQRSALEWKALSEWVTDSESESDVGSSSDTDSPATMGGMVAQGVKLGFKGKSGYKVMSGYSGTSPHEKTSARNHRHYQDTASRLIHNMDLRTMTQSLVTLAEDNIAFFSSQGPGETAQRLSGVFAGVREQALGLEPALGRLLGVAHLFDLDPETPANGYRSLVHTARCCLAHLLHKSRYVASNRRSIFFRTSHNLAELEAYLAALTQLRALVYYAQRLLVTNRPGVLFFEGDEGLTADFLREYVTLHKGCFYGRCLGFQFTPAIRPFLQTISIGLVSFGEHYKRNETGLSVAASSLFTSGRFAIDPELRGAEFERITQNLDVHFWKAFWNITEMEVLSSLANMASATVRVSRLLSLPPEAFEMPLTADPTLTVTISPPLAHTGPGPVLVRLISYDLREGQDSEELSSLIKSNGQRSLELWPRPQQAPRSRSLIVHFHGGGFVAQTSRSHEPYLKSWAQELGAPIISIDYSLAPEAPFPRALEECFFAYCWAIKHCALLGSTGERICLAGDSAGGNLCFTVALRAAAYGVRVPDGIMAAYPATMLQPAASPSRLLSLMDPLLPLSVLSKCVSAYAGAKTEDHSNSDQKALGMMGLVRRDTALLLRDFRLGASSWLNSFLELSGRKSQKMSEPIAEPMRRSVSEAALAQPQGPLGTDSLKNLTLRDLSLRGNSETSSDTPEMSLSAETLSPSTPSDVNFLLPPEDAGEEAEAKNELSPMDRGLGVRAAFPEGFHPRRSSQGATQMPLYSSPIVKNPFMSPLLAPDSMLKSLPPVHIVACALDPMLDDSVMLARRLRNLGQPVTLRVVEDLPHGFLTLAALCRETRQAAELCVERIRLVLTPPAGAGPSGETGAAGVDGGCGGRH
Procedure: Expi lysates expressing hHSL were preincubated with 100 μM Inhibitors for 30 min and incubated with 1 mM pNV substrate for 30 min. Samples measured in triplicates.

[1] = 50 μM compound, Example 237, read-out: Inhibition of murine ATGL at 50 μM − mean [%]
[2] = 50 μM, Example 238, read-out: % Inhibition of murine ATGL at 50 μM
[3] = 50 μM, overview table, read-out: mouse ATGL inhibition [% inhibition at 50 μM]

`CCOc1ccc(-c2cc(OC)cc(C(=O)OC(C)C)n2)cc1` [Example 35] gave an inhibition at 50 µM (murine ATGL; [1]) of 0%, an inhibition at 100 µM (mMGL) of 0% and an inhibition at 100 µM (hHSL) of 0%.
In the case of `CCOc1ccc(-c2nc(C(=O)OCc3ccoc3)cs2)cc1` [Example 216, Furan-3-ylmethyl 2-(4-ethoxyphenyl)thiazole-4-carboxylate], the inhibition at 25 µM (murine ATGL; Example 238) is reported as 70%, the inhibition at 50 µM (murine ATGL; [2]) is reported as 81% and the inhibition at 100 µM (mMGL) is reported as 0%. For the same compound, the inhibition at 100 µM (hHSL) was 30%.
For `C#C[C@@H](C)OC(=O)c1csc(-c2ccc(OCC)cc2)n1` [Example 211, (R)-But-3-yn-2-yl 2-(4-ethoxyphenyl)thiazole-4-carboxylate], the inhibition at 25 µM (murine ATGL; Example 238) was 73%, the inhibition at 50 µM (murine ATGL; [2]) was 82% and the inhibition at 50 µM (murine ATGL; [3]) was 60%. It also gave an inhibition at 100 µM (mMGL) of 0% and an inhibition at 100 µM (hHSL) of 40%.
`CCOc1ccc(-c2cccc(C(=O)OCc3cccs3)n2)cc1` [Example 189, Thiophen-2-ylmethyl 6-(4-ethoxyphenyl)picolinate] showed an inhibition at 50 µM (murine ATGL; [2]) of 87%, an inhibition at 100 µM (mMGL) of 0% and an inhibition at 100 µM (hHSL) of 0%.
Compound `CCOc1ccc(-c2cccc(C(=O)OCc3ccco3)n2)cc1` [Example 190, Furan-2-ylmethyl 6-(4-ethoxyphenyl)picolinate] has an inhibition at 50 µM (murine ATGL; [2]) of 80%, an inhibition at 100 µM (mMGL) of 0% and an inhibition at 100 µM (hHSL) of 0%.
In the case of `CCCCOC(=O)c1csc(-c2ccc(OCC)cc2)n1` [Example 212, Butyl 2-(4-ethoxyphenyl)thiazole-4-carboxylate], the inhibition at 25 µM (murine ATGL; Example 238) is reported as 47%, the inhibition at 50 µM (murine ATGL; [2]) is reported as 56% and the inhibition at 100 µM (mMGL) is reported as 0%. For the same compound, the inhibition at 100 µM (hHSL) was 0%.
For `CCOc1ccc(-c2nc(C(=O)OCc3ccsc3)cs2)cc1` [Example 215, Thiophen-3-ylmethyl 2-(4-ethoxyphenyl)thiazole-4-carboxylate], the inhibition at 25 µM (murine ATGL; Example 238) was 71%, the inhibition at 50 µM (murine ATGL; [2]) was 81% and the inhibition at 50 µM (murine ATGL; [3]) was 60%. For the same compound, the inhibition at 100 µM (mMGL) was 0% and the inhibition at 100 µM (hHSL) was 30%.
`CCOc1ccc(-c2nc(C(=O)OCc3ccc(Cl)s3)cs2)cc1` [Example 223, (5-Chlorothiophen-2-yl)methyl 2-(4-ethoxyphenyl)thiazole-4-carboxylate] gave an inhibition at 50 µM (murine ATGL; [2]) of 71%, an inhibition at 100 µM (mMGL) of 0% and an inhibition at 100 µM (hHSL) of 40%.
`CC#CCOC(=O)c1csc(-c2ccc(OCC)cc2)n1` [Example 209, But-2-yn-1-yl 2-(4-ethoxyphenyl)thiazole-4-carboxylate] gave an inhibition at 50 µM (murine ATGL; [2]) of 76%, an inhibition at 100 µM (mMGL) of 0% and an inhibition at 100 µM (hHSL) of 40%.
`CCOc1ccc(-c2nc(C(=O)OCc3ccc(Br)s3)cs2)cc1` [Example 224, (5-Bromothiophen-2-yl)methyl 2-(4-ethoxyphenyl)thiazole-4-carboxylate] gave an inhibition at 50 µM (murine ATGL; [2]) of 68%, an inhibition at 100 µM (mMGL) of 70% and an inhibition at 100 µM (hHSL) of 95%.
`C#C[C@H](C)OC(=O)c1csc(-c2ccc(OCC)cc2)n1` [Example 210, (S)-But-3-yn-2-yl 2-(4-ethoxyphenyl)thiazole-4-carboxylate] was tested, and the inhibition at 25 µM (murine ATGL; Example 238) was 47%, the inhibition at 50 µM (murine ATGL; [2]) was 60% and the inhibition at 100 µM (mMGL) was 0%. For the same compound, the inhibition at 100 µM (hHSL) was 0%.
Compound `COc1cc(C(=O)OC(C)C)nc(-c2ccc(OC(C)C)cc2)c1` [Example 201, Isopropyl 6-(4-isopropoxyphenyl)-4-methoxypicolinate] has an inhibition at 50 µM (murine ATGL; [2]) of 45%, an inhibition at 50 µM (murine ATGL; [3]) of 0% and an inhibition at 100 µM (mMGL) of 0%. It also gave an inhibition at 100 µM (hHSL) of 0%.
`CCOc1ccc(-c2nc(C(=O)OCc3cccs3)cs2)cc1` [Example 152, Thiophen-2-ylmethyl 2-(4-ethoxyphenyl)thiazole-4-carboxylate] gave an inhibition at 50 µM (murine ATGL; [1]) of 74% and an inhibition at 100 µM (hHSL) of 25%.
